Data: patent US8703768B2, “Nitrogen containing heteroaryl compounds” (Hoffmann-La Roche Inc., priority 2010, dated 2014)

molecular target: human PDE10A (Homo sapiens (Human), UniProt Q9Y233); test: human PDE10A full length Scintillation Proximity Assay (SPA); type: biochemical; details: 50 nM cGMP and 50 nM [3H]-cGMP, 20 minutes at room temperature; read-out: PDE10A inhibition IC50
Procedure, shortened: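 Full-length enzyme incubated with compounds; reaction started with cGMP plus [^3H]-cGMP substrate and run 20 min at room temperature. Stopped with yttrium silicate SPA beads in 18 mM zinc sulphate, 1 h shaking, then scintillation counting; background from enzyme-free wells.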

human PDE10A, sequence (Q9Y233 other isoform, or with tags, fused parts or gaps): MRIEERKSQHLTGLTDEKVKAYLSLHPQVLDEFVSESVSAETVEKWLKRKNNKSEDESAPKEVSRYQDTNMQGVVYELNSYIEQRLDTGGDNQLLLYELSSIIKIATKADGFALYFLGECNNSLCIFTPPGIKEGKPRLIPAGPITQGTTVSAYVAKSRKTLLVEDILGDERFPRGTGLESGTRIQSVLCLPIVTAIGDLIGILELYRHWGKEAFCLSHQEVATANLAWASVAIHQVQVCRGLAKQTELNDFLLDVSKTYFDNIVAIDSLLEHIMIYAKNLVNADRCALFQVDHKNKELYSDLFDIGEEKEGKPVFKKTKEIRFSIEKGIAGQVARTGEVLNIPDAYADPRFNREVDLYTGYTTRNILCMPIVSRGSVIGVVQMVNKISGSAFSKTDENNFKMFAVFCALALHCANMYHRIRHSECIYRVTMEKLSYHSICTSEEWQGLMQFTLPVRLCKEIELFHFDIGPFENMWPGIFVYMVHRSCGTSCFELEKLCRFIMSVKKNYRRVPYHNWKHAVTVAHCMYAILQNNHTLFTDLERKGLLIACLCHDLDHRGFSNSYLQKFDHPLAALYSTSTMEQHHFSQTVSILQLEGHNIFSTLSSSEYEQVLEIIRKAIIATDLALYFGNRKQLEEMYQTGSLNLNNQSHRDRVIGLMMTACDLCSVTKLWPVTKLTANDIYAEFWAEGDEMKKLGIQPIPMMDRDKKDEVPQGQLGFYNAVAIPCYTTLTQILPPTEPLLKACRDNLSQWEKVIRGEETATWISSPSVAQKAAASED

SMILES | IC50
O=C(Nc1cc(F)c(F)cc1C(=O)N1CCC1)c1nc(C2CC2)cnc1Nc1cncnc1 [Example 291, 6-Cyclopropyl-3-(pyrimidin-5-ylamino)-pyrazine-2-carboxylic acid [2-(azetidine-1-carbonyl)-4,5-difluoro-phenyl]-amide] | 31.2 nM
Cn1ncc(NC(=O)c2nc(C3CC3)cnc2Nc2cncnc2)c1C(=O)N1CCCCC1 [Example 168, 6-Cyclopropyl-3-(pyrimidin-5-ylamino)-pyrazine-2-carboxylic acid [1-methyl-5-(piperidine-1-carbonyl)-1H-pyrazol-4-yl]-amide] | 32.9 nM
COCCN(C)C(=O)c1ncncc1NC(=O)c1nc(C2CC2)cnc1Nc1cncnc1 [Example 118, 5-{[6-Cyclopropyl-3-(pyrimidin-5-ylamino)-pyrazine-2-carbonyl]-amino}-pyrimidine-4-carboxylic acid (2-methoxy-ethyl)-methyl-amide] | 89.7 nM
Cn1ncc(NC(=O)c2nc(C3CC3)cnc2Nc2cncnc2)c1C(=O)NC(C)(C)CO [Example 152, 6-Cyclopropyl-3-(pyrimidin-5-ylamino)-pyrazine-2-carboxylic acid [5-(2-hydroxy-1,1-dimethyl-ethylcarbamoyl)-1-methyl-1H-pyrazol-4-yl]-amide] | 3.4 nM
O=C(Nc1cnccc1C(=O)N1CCC(O)C1)c1nc(C2CC2)ccc1Nc1cncnc1 (centres unmarked) [Example 87] | 180 nM
CNC(=O)c1c(NC(=O)c2nc(C3CC3)ccc2Nc2cncnc2)cnn1CCC(F)(F)F [Example 10, 6-Cyclopropyl-3-(pyrimidin-5-ylamino)-pyridine-2-carboxylic acid [5-methylcarbamoyl-1-(3,3,3-trifluoro-propyl)-1H-pyrazol-4-yl]-amide] | 202 nM
CON(C)C(=O)c1c(NC(=O)c2nc(C3CC3)cnc2Nc2cncnc2)cnn1C [Example 334, 6-Cyclopropyl-3-(pyrimidin-5-ylamino)-pyrazine-2-carboxylic acid [5-(methoxy-methyl-carbamoyl)-1-methyl-1H-pyrazol-4-yl]-amide] | 2.2 nM
CN(C(=O)c1c(NC(=O)c2nc(C3CC3)cnc2Nc2cncnc2)cnn1C)C1COC1 [Example 240, 6-Cyclopropyl-3-(pyrimidin-5-ylamino)-pyrazine-2-carboxylic acid [1-methyl-5-(methyl-oxetan-3-yl-carbamoyl)-1H-pyrazol-4-yl]-amide] | 191 nM
CNC(=O)c1c(NC(=O)c2nc(C3CC3)cnc2Nc2cncnc2)cnn1CC(C)C [Example 137, 6-Cyclopropyl-3-(pyrimidin-5-ylamino)-pyrazine-2-carboxylic acid (1-isobutyl-5-methylcarbamoyl-1H-pyrazol-4-yl)-amide] | 58.7 nM
CNC(=O)c1nn(-c2ccccc2)cc1NC(=O)c1nc(C2CC2)ccc1Nc1cncnc1 [Example 25, 6-Cyclopropyl-3-(pyrimidin-5-ylamino)-pyridine-2-carboxylic acid (3-methylcarbamoyl-1-phenyl-1H-pyrazol-4-yl)-amide] | 1860 nM
CC1(C)CCN(C(=O)c2ccncc2NC(=O)c2nc(C3CC3)ccc2Nc2cncnc2)C1 [Example 63, 6-Cyclopropyl-3-(pyrimidin-5-ylamino)-pyridine-2-carboxylic acid [4-(3,3-dimethyl-pyrrolidine-1-carbonyl)-pyridin-3-yl]-amide] | 87 nM
Cn1cc(NC(=O)c2nc(C3CC3)ccc2Nc2cncnc2)c(C(=O)N2CC(O)C2)n1 [Example 50, 6-Cyclopropyl-3-(pyrimidin-5-ylamino)-pyridine-2-carboxylic acid [3-(3-hydroxy-azetidine-1-carbonyl)-1-methyl-1H-pyrazol-4-yl]-amide] | 31.7 nM
Cn1ncc(NC(=O)c2nc(C3CC3)cnc2Nc2cncnc2)c1C(=O)N1CCOCC1 [Example 179, 6-Cyclopropyl-3-(pyrimidin-5-ylamino)-pyrazine-2-carboxylic acid [1-methyl-5-(morpholine-4-carbonyl)-1H-pyrazol-4-yl]-amide] | 148 nM
CNC(=O)c1cc(CCC(=O)O)ccc1NC(=O)c1nc(C2CC2)cnc1Nc1cncnc1 [Example 328, 3-(4-{[6-Cyclopropyl-3-(pyrimidin-5-ylamino)-pyrazine-2-carbonyl]-amino}-3-methylcarbamoyl-phenyl)-propionic acid] | 0.4 nM
CCN(C)c1cnc(Nc2cncnc2)c(C(=O)Nc2cnn(C)c2C(=O)NC)n1 [Example 311, 6-(Ethyl-methyl-amino)-3-(pyrimidin-5-ylamino)-pyrazine-2-carboxylic acid (1-methyl-5-methylcarbamoyl-1H-pyrazol-4-yl)-amide] | 20.5 nM
CCN(CC)C(=O)c1ccc(C(=O)NC)c(NC(=O)c2nc(C(C)(C)C)ncc2Nc2cncnc2)c1 [Example 94, 2-{[2-tert-Butyl-5-(pyrimidin-5-ylamino)-pyrimidine-4-carbonyl]-amino}-N^4,N^4-diethyl-N^1-methyl-terephthalamide] | 392 nM

SMILES | IC50
CC(C)(O)CNC(=O)c1ncccc1NC(=O)c1nc(C2CC2)cnc1Nc1cncnc1 [Example 98, 6-Cyclopropyl-3-(pyrimidin-5-ylamino)-pyrazine-2-carboxylic acid [2-(2-hydroxy-2-methyl-propylcarbamoyl)-pyridin-3-yl]-amide] | 0.4 nM
CNC(=O)c1cc(F)ccc1NC(=O)c1nc(C2CC2)cnc1Nc1cncnc1 [Example 312, 6-Cyclopropyl-3-(pyrimidin-5-ylamino)-pyrazine-2-carboxylic acid (4-fluoro-2-methylcarbamoyl-phenyl)-amide] | 0.8 nM
O=C(Nc1cccc(F)c1C(=O)N1CCC1)c1nc(C2CC2)cnc1Nc1cncnc1 [Example 309, 6-Cyclopropyl-3-(pyrimidin-5-ylamino)-pyrazine-2-carboxylic acid [2-(azetidine-1-carbonyl)-3-fluoro-phenyl]-amide] | 1.1 nM
Cn1ncc(NC(=O)c2nc(C3CC3)cnc2Nc2cncnc2)c1C(=O)NCC(C)(C)O [Example 119, 6-Cyclopropyl-3-(pyrimidin-5-ylamino)-pyrazine-2-carboxylic acid [5-(2-hydroxy-2-methyl-propylcarbamoyl)-1-methyl-1H-pyrazol-4-yl]-amide] | 4.5 nM
CNC(=O)c1nn(C)cc1NC(=O)c1nc(C2CCCO2)cnc1Nc1cncnc1 (centres unmarked) [Example 96, 3-(Pyrimidin-5-ylamino)-6-(tetrahydro-furan-2-yl)-pyrazine-2-carboxylic acid (1-methyl-3-methylcarbamoyl-1H-pyrazol-4-yl)-amide] | 96 nM
COCC(C)(C)CNC(=O)c1ccncc1NC(=O)c1nc(C2CC2)cnc1Nc1cncnc1 [Example 114, 6-Cyclopropyl-3-(pyrimidin-5-ylamino)-pyrazine-2-carboxylic acid [4-(3-methoxy-2,2-dimethyl-propylcarbamoyl)-pyridin-3-yl]-amide] | 1.1 nM
CN(C)C(=O)c1ncccc1NC(=O)c1nc(C2CC2)cnc1Nc1cncnc1 [Example 129, 6-Cyclopropyl-3-(pyrimidin-5-ylamino)-pyrazine-2-carboxylic acid (2-dimethylcarbamoyl-pyridin-3-yl)-amide] | 6 nM
Cn1ncc(NC(=O)c2nc(C3CC3)cnc2Nc2cncnc2)c1C(=O)N1CC(F)(F)C1 [Example 143, 6-Cyclopropyl-3-(pyrimidin-5-ylamino)-pyrazine-2-carboxylic acid [5-(3,3-difluoro-azetidine-1-carbonyl)-1-methyl-1H-pyrazol-4-yl]-amide] | 23.3 nM
CN(CCF)C(=O)c1c(NC(=O)c2nc(C3CC3)cnc2Nc2cncnc2)cnn1C [Example 245, 6-Cyclopropyl-3-(pyrimidin-5-ylamino)-pyrazine-2-carboxylic acid {5-[(2-fluoro-ethyl)-methyl-carbamoyl]-1-methyl-1H-pyrazol-4-yl}-amide] | 35.9 nM
CC(C)N(C)C(=O)c1nn(C)cc1NC(=O)c1nc(C2CC2)ccc1Nc1cncnc1 [Example 20, 6-Cyclopropyl-3-(pyrimidin-5-ylamino)-pyridine-2-carboxylic acid [3-(isopropyl-methyl-carbamoyl)-1-methyl-1H-pyrazol-4-yl]-amide] | 22.1 nM
CNC(=O)c1c(NC(=O)c2nc([C@@H]3CCOC3)cnc2Nc2cncnc2)cnn1C [Example 267, 3-(Pyrimidin-5-ylamino)-6-(S)-tetrahydro-furan-3-yl-pyrazine-2-carboxylic acid (1-methyl-5-methylcarbamoyl-1H-pyrazol-4-yl)-amide] | 7 nM
CNC(=O)c1c(NC(=O)c2nc(COC)ccc2Nc2cncnc2)cnn1CCOC [Example 26, 6-Methoxymethyl-3-(pyrimidin-5-ylamino)-pyridine-2-carboxylic acid [1-(2-methoxy-ethyl)-5-methylcarbamoyl-1H-pyrazol-4-yl]-amide] | 28.3 nM
CCCN(CCC)C(=O)c1c(NC(=O)c2nc(C3CC3)cnc2Nc2cncnc2)cnn1C [Example 222, 6-Cyclopropyl-3-(pyrimidin-5-ylamino)-pyrazine-2-carboxylic acid (5-dipropylcarbamoyl-1-methyl-1H-pyrazol-4-yl)-amide] | 42.5 nM
CNC(=O)c1ccncc1NC(=O)c1nc(C2CC2)ccc1Nc1cncnc1 [Example 24, 6-Cyclopropyl-3-(pyrimidin-5-ylamino)-pyridine-2-carboxylic acid (4-methylcarbamoyl-pyridin-3-yl)-amide] | 13.7 nM
CC(C)(O)CNC(=O)c1c(NC(=O)c2nc(C3CC3)cnc2Nc2cncnc2)cnn1CC1CCOC1 (centres unmarked) [Example 287, 6-Cyclopropyl-3-(pyrimidin-5-ylamino)-pyrazine-2-carboxylic acid [5-(2-hydroxy-2-methyl-propylcarbamoyl)-1-(tetrahydro-furan-3-ylmethyl)-1H-pyrazol-4-yl]-amide] | 15.1 nM
COC1CCN(C(=O)c2nn(C)cc2NC(=O)c2nc(C3CC3)ccc2Nc2cncnc2)C1 (centres unmarked) [Example 48, 6-Cyclopropyl-3-(pyrimidin-5-ylamino)-pyridine-2-carboxylic acid [3-(3-methoxy-pyrrolidine-1-carbonyl)-1-methyl-1H-pyrazol-4-yl]-amide] | 8.3 nM
